Paper PMC7316160 (Drug testing and analysis, 2018)
“And” between values parts separate entries of the source, which are not always exact repeats. Equal entries are not always repeated. Where two headings read alike, the source gives them in different places.

Assays:
[1] = LC-MS/MS quantification in blood/serum of human intoxication cases; assay type: in vivo
[2] = target: T1, norepinephrine transporter (NET) (Rattus norvegicus, UniProt Q63380); assay: Inhibition of [^3H]norepinephrine uptake at NET in rat brain synaptosomes; assay type: biochemical; conditions: approximate value
T1 sequence (Q63380 1-617): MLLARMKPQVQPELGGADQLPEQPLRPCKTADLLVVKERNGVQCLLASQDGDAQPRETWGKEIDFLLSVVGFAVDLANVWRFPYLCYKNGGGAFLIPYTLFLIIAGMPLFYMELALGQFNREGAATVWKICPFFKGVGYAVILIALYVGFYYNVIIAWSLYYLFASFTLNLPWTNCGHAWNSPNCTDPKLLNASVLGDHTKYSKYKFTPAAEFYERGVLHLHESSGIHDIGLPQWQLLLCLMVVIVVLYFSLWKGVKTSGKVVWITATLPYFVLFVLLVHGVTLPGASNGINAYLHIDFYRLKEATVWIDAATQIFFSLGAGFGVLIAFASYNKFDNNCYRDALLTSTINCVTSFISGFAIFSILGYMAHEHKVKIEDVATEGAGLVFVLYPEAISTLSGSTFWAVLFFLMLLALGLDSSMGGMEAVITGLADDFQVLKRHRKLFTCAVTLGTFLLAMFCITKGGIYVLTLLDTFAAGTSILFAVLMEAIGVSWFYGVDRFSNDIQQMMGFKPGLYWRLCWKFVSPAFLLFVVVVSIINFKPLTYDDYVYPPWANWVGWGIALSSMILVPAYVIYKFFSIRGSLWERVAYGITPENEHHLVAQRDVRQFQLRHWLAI

[3] = target: T2, dopamine transporter (DAT) (Rattus norvegicus, UniProt P23977); assay: Inhibition of [^3H]dopamine uptake at DAT in rat brain synaptosomes; assay type: biochemical; conditions: for DAT/SERT ratio (uptake inhibition): [DAT IC50]^−1/[SERT IC50]^−1, higher value indicates greater DAT selectivity
T2 sequence (P23977 whole entry): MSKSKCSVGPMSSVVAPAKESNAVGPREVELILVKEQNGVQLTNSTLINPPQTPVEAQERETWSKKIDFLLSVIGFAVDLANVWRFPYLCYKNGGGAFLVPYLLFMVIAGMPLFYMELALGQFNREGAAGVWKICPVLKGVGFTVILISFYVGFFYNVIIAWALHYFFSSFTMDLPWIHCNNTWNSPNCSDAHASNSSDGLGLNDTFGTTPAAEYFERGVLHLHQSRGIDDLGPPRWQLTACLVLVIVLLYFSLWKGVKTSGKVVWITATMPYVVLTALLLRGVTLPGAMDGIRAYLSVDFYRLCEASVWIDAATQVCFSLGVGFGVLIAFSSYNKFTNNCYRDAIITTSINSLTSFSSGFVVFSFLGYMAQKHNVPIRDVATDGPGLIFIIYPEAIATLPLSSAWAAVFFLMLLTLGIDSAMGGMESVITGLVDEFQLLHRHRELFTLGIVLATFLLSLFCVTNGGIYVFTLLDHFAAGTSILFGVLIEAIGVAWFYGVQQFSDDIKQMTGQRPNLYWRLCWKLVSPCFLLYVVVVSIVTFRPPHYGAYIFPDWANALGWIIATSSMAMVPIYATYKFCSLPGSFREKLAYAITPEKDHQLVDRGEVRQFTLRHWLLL

5-HT transporter (SERT) = 5-HT transporter (SERT) (Rattus norvegicus, UniProt P31652); assay: Release of [^3H]5-HT via SERT from rat brain synaptosomes; assay type: biochemical; conditions: for Emax: read-out: Release of [^3H]5-HT via SERT %Emax; for Release of [^3H]5-HT via SERT EC50: rat brain synaptosomes, mean ± SD, n=3
Sequence of 5-HT transporter (SERT) (P31652 whole entry): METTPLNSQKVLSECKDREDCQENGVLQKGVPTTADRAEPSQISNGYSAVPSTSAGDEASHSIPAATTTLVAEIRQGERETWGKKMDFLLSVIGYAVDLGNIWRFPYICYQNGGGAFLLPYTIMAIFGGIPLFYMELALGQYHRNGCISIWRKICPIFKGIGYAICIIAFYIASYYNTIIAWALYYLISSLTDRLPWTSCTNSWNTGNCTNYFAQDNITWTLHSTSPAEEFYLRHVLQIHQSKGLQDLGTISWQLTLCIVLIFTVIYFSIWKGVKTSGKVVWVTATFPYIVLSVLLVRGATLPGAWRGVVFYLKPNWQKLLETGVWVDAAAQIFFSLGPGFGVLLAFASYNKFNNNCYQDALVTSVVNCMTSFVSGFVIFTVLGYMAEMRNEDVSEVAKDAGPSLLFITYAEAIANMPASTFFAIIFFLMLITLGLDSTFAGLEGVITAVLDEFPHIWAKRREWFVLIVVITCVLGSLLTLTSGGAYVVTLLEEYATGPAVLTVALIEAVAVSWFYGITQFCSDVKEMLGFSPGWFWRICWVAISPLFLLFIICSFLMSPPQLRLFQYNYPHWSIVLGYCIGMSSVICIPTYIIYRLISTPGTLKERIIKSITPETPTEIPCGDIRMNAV

[4] = target: T1, norepinephrine transporter (NET); assay: Release of [^3H]MPP+ via NET from rat brain synaptosomes; assay type: biochemical; conditions: for Release of [^3H]MPP+ via NET EC50: rat brain synaptosomes, mean ± SD, n=3
[5] = target: T2, dopamine transporter (DAT); assay: Release of [^3H]MPP+ via DAT from rat brain synaptosomes; assay type: biochemical; conditions: for Release of [^3H]MPP+ via DAT EC50: rat brain synaptosomes, mean ± SD, n=3
[6] = Stability in whole blood on storage; assay type: physicochemical, human; conditions: for long-term stability, variation of initial concentration: 90 days; for Stability (% difference): whole blood, n=3
[7] = assay type: in vivo, human; conditions: for Potassium: reference 3.3 - 5.1; for aspartame aminotransferase: reference 10 - 40; for alanine aminotransferase: reference 12 - 78; for BUN: reference 15 - 39; for Sodium: reference 136 - 145; for pH: reference 7.35 - 7.45; for HCO3: reference 22 - 26; for pCO2: reference 35 - 45; for Glucose: reference 70 - 100; for pO2: reference 80 - 100; for serum creatinine: reference Male 0.8 - 1.3; for Hb: reference Male 13.2 - 18.0; for Hematocrit: reference Male 39.0 - 51.0; for creatine kinase: reference Male 39 - 308; for base excess: reference −2 - +2
[8] = Case 4, co-exposure alcohol, MDMA and N-ethylnorpentylone
[9] = Inhibition of [^3H]dopamine Uptake at DAT IC50, rat brain synaptosomes (caudate), mean ± SD, n=3

CNC(C)Cc1ccc2c(c1)OCO2 (stereo not drawn) [MDMA, 3,4-methylenedioxymethamphetamine]
serum concentration [1, 8]: 54 ng/mL

CNC(C)C(=O)c1ccc2c(c1)OCO2 (stereo not drawn) [Methylone, 3,4-methylenedioxy-N-methylcathinone]
IC50 [2]: ~1000 nM | IC50 [3, 9]: 1390 ± 81 nM | DAT/SERT ratio (uptake inhibition) [3]: 0.83 and 0.8 | IC50 ([3]; uptake inhibition at DAT IC50, rat brain synaptosomes, approximate value): ~1000 nM | EC50 (5-HT transporter (SERT)): 342 ± 20 nM | Emax (5-HT transporter (SERT)): 99% | EC50 [4]: 81 ± 8 nM | Emax ([4]; read-out: Release of [^3H]MPP+ via NET %Emax): 94% | EC50 [5]: 178 ± 17 nM | DAT/SERT ratio (release) ([5]; [DAT EC50]^−1/[SERT EC50]^−1, higher value indicates greater DAT selectivity): 1.9 | Emax ([5]; read-out: Release of [^3H]MPP+ via DAT %Emax): 96%

CCCC(NCC)C(=O)c1ccc2c(c1)OCO2 (stereo not drawn) [N-ethylnorpentylone, 1-(1,3-benzodioxol-5-yl)-2-(ethylamino)pentan-1-one]
long-term stability, variation of initial concentration ([6]; fortified whole blood, both QC concentrations, 4 °C): −3.5% | long-term stability, variation of initial concentration ([6]; fortified whole blood, both QC concentrations, −20 °C): +6.5% | long-term stability, variation of initial concentration ([6]; post mortem blood sample, 4 °C): −19.7% | long-term stability, variation of initial concentration ([6]; post mortem blood sample, −20 °C): −5.5% | Stability (% difference) ([6]; High QC (400 ng/mL), 3 freeze-thaw cycles): −3.0% | Stability (% difference) ([6]; High QC (400 ng/mL), 4 °C, 24h): 7.1% | Stability (% difference) ([6]; High QC (400 ng/mL), 4 °C, 72h): 5.9% | Stability (% difference) ([6]; High QC (400 ng/mL), −20 °C, 24h): −3.3% | Stability (% difference) ([6]; High QC (400 ng/mL), −20 °C, 72h): −2.9% | Stability (% difference) ([6]; Low QC (15 ng/mL), 3 freeze-thaw cycles): −11.8% | Stability (% difference) ([6]; Low QC (15 ng/mL), 4 °C, 24h): −2.4% | Stability (% difference) ([6]; Low QC (15 ng/mL), 4 °C, 72h): −4.9% | Stability (% difference) ([6]; Low QC (15 ng/mL), −20 °C, 24h): −1.8% | Stability (% difference) ([6]; Low QC (15 ng/mL), −20 °C, 72h): −12.6% | IC50 [3, 9]: 37 ± 2 nM | DAT/SERT ratio (uptake inhibition) [3]: > 10 | Release of [^3H]5-HT via SERT EC50 (5-HT transporter (SERT)): unable to evoke release | Release of [^3H]5-HT via SERT EC50 (5-HT transporter (SERT); listed as N-EthylNorpentylone): inactive | Release of [^3H]5-HT via SERT EC50 (5-HT transporter (SERT); listed as N-Ethylnorpentylone): no transporter releasing activity | Release of [^3H]MPP+ via NET EC50 [4]: unable to evoke release | Release of [^3H]MPP+ via NET EC50 ([4]; listed as N-EthylNorpentylone): inactive | Release of [^3H]MPP+ via NET EC50 ([4]; listed as N-Ethylnorpentylone): no transporter releasing activity | symptoms of intoxicated subjects ([7]; 6 human cases): palpitations, tachycardia, agitation, aggression, hallucinations, coma and, in one case, death | heart rate (tachycardia) ([7]; Case 2, at ED): 176 bpm | Potassium ([7]; Case 3): 3.6 mEq/L | aspartame aminotransferase ([7]; Case 3): 93 U/L | alanine aminotransferase ([7]; Case 3): 35 U/L | BUN ([7]; Case 3): 14 mg/dL | Sodium ([7]; Case 3): 140 mEq/L | phosphatase alkaline ([7]; Case 3, reference Adult 50 - 136): 53 U/L | blood pressure ([7]; Case 4, described as normal): 123/89 | Potassium ([7]; Case 4): 3.4 mEq/L | creatine kinase MB isoenzyme ([7]; Case 4, reference 7 - 25): 21 U/L | pH ([7]; Case 4): 7.46 | aspartame aminotransferase ([7]; Case 4): 40 U/L | alanine aminotransferase ([7]; Case 4): 25 U/L | BUN ([7]; Case 4): 14 mg/dL | HCO3 ([7]; Case 4): 20.5 mmol/L | pCO2 ([7]; Case 4): 29.4 mmHg | Glucose ([7]; Case 4): 104 mg/dL | pO2 ([7]; Case 4): 72.5 mmHg | Sodium ([7]; Case 4): 137 mEq/L | serum creatinine ([7]; Case 4): 0.9 mg/dL | Hb ([7]; Case 4): 15.5 g/dL | Hematocrit ([7]; Case 4): 43.0% | creatine kinase ([7]; Case 4): 605 U/L | base excess ([7]; Case 4): -1.6 mmol/L | Glasgow score (neurological depression) ([7]; Case 5): 5 | Lactate ([7]; Case 5, reference 0.5 - 1.6): 11.0 mmol/L | Magnesium ([7]; Case 5, reference 1.6 - 2.4): 1.6 mg/dL | Potassium ([7]; Case 5): 3.7 mEq/L | pH ([7]; Case 5): 7.41 | BUN ([7]; Case 5): 28 mg/dL | HCO3 ([7]; Case 5): 19 mmol/L | pCO2 ([7]; Case 5): 31 mmHg | pO2 ([7]; Case 5): 86 mmHg | Sodium ([7]; Case 5): 137 mEq/L | serum creatinine ([7]; Case 5): 0.7 mg/dL | Hb ([7]; Case 5): 13.0 g/dL | Hematocrit ([7]; Case 5): 43.0% | creatine kinase ([7]; Case 5): 1,260 U/L | base excess ([7]; Case 5): -3.8 mmol/L | Potassium ([7]; Case 6): 3.8 mEq/L | aspartame aminotransferase ([7]; Case 6): 24 U/L | alanine aminotransferase ([7]; Case 6): 27 U/L | BUN ([7]; Case 6): 31 mg/dL | Glucose ([7]; Case 6): 101 mg/dL | Sodium ([7]; Case 6): 137 mEq/L | serum creatinine ([7]; Case 6): 0.7 mg/dL | Hb ([7]; Case 6): 13.0 g/dL | Hematocrit ([7]; Case 6): 39.9% | creatine kinase ([7]; Case 6): 713 U/L | post mortem whole blood concentration ([1]; Case 1, fatal, only psychoactive analyte detected): 170 ng/mL | serum concentration ([1]; Case 2, recovered by 12 h): 7 ng/mL | serum concentration [1, 8]: 19 ng/mL | serum concentration ([1]; Case 5, coma, cerebrovascular hemorrhage): 149 ng/mL | serum concentration ([1]; Case 6, psychosis): 61 ng/mL | Release of [^3H]MPP+ via DAT EC50 [5]: unable to evoke release | Release of [^3H]MPP+ via DAT EC50 ([5]; listed as N-EthylNorpentylone): inactive | Release of [^3H]MPP+ via DAT EC50 ([5]; listed as N-Ethylnorpentylone): no transporter releasing activity

CCCC(NC)C(=O)c1ccc2c(c1)OCO2 (stereo not drawn) [Pentylone, 1-(1,3-benzodioxol-5-yl)-2-(methylamino)pentan-1-one]
IC50 [3, 9]: 154 ± 11 nM | DAT/SERT ratio (uptake inhibition) [3]: 7.8 | EC50 (5-HT transporter (SERT)): 476 ± 98 nM | Emax (5-HT transporter (SERT)): 54% | Release of [^3H]MPP+ via NET EC50 [4]: Inactive | Release of [^3H]MPP+ via DAT EC50 [5]: inactive

CCO [alcohol]
serum concentration ([1]; Case 4): 800000 ng/mL
